Results on two compounds are retold here after patent US20160250285A1, “NEUROPROTECTIVE PEPTIDES” (priority 2013, published 2016).

Entries after “also recorded” stand apart in the source; their conditions may differ. Read-outs that look alike come from different tables or passages of the source.

Experiment [1] has as its system primary cortical neuronal cultures. The conditions noted are these: for neuroprotection, peptide present during the 5 minute glutamic acid insult only: FIG. 28; for neuroprotection, 10 minute pre-exposure removed immediately prior to insult: FIG. 29, FIG. 14.
Experiment [2] has the same test system. In words: In vitro ischemia / oxygen-glucose deprivation (OGD) model, neurons. The format is cell-based, rat. The conditions noted are these: for neuroprotection when added for 15 minutes after OGD: FIGS. 31, 20, 22, 1 μM and 5 μM in FIG. 31; for neuroprotection when added post-in vitro ischemia/OGD: added after anaerobic incubation until experiment end (FIGS. 3b, 16, 17).
Experimental: Establishment of cortical cultures was as previously described (Meloni et al. 2001). Briefly, cortical tissue from E18-E19 Sprague-Dawley rats was dissociated in Dulbecco's modified Eagle medium (DMEM; Invitrogen, Australia) supplemented with 1.3 mM L-cysteine, 0.9 mM NaHCOa, 10 units/ml papain (Sigma, USA) and 50 units/ml DNase (Sigma) and washed in cold DMEM/10% horse serum. Neurons were resuspended in Neurobasal (Invitrogen) containing 2% B27 supplement (B27; Invitrogen). Before seeding, 96-well sized glass wells (6 mm diameter, ProTech, Australia) or 96-well plastic plates (ProSciTech, Australia) were coated with poly-D-lysine overnight (50 ml/well: 50 mg/mL; 70-150 K, Sigma). Excess poly-D-lysine solution was then removed and replaced with Neurobasal (containing 2% B27; 4% fetal bovine serum; 1% horse serum; 62.5 mM glutamate; 25 mM 2-mercaptoethanol; and 30 mg/mL streptomycin and 30 mg/mL penicillin). Neurons were plated to obtain ≈10,000 viable neurons for each well on day in vitro 11-12. Neuronal cultures were maintained in a CO2 incubator (5% CO2, 95% air balance, 98% humidity) at 37° C. On day in vitro 4 one third of the culture medium was removed and replaced with fresh Neurobasal/2% B27 containing the mitotic inhibitor, cytosine arabinofuraNOside (1 mM final concentration; Sigma). On day in vitro 8 one half of the culture medium was replaced with Neurobasal/2% B27. Cultures were used on day in vitro 11 or 12 after which time they routinely consist of >97% neurons and 1-3% astrocytes (Meloni et al. 2001).
The in vitro ischemia model used for primary cortical neuronal cultures was performed as previously described (Meloni et at 2011) Briefly, culture media was removed from wells (glass 96-well plate format) and washed with 315 μl of glucose free balanced salt solution (BSS; mM: 116 NaCl, 5.4 KCl, 1.8 CaCl2, 0.8 MgSO4, 1 NaH2PO4; pH 6.9) before the addition of 60 μl BSS containing cell penetrating or control peptides (see Table 1). A non-peptide positive control consisting of the glutamate receptor blockers (5 μM MK801/5 μM 6-cyano-7-nitroquinoxaline: MK801/CNQX) was also included. In vitro ischemia was initiated by placing wells in an anaerobic incubator (Don Whitely Scientific, England; atmosphere of 5% CO2, 10% H2 and 85% argon, 98% humidity) at 37° C. for 55 minutes. Upon removal from the anaerobic incubator, 60 μl of Neurobasal/2% N2 supplement was added to the wells and cultures incubated for a further 24 hours at 37° C. in the CO2 incubator. Control cultures received the same BSS wash procedures and media additions as ischemic treated cultures before incubation at 37° C. in the CO2 incubator.
Control cultures underwent the same BSS wash procedures and media additions as OGD treated cultures.
Twenty-four hours after insult, neuronal cultures were examined by light microscopy for qualitative assessment of neuronal cell viability. Neuronal viability was quantitatively measured by 3-(4,5,dimethyliazol-2-yl)-5-(3-carboxymethoxy-phenyl)-2-(4-sulfophenyl)-2H-tetrazolium salt (MTS) assay (Promega, Australia). The MTS assay measures the cellular conversion of the tetrazolium salt to a water-soluble brown formazan salt, which is detected spectrophotometrically at 490 nm. MTS absorbance data were converted to reflect proportional cell viability relative to both the untreated and treated controls, with the untreated control taken as 100% viability, and presented as mean±SEM. […] Viability data was analysed by ANOVA, followed by post-hoc Fischer's PLSD test, with P<0.05 values considered statistically significant. Four- to six wells were used in all assays.

Experiment [3] has as its system neuroblastoma cell line (SH-SY5Y). The experiment can be described thus: In vitro ischemia model, SH-SY5Y cells. The experiment is classed as cell-based. The settings on record: 5 μM during/2.5 μM post (FIG. 3c). The method, then:
A brain endothelial cell line (bEND3) and a neuroblastoma cell line (SH-SY5Y) were also used for some experiments. bEND3 and SH-SY5Y cells were cultured using standard techniques in DMEM plus 5 or 15% foetal calf serum. Rat primary astrocytes were obtained and cultured as described for cortical neurons except DMEM plus 10% foetal calf serum was used instead of Neurobasal/2% B27, and the mitotic inhibitor, cytosine arabinofuraNOside was not used.
The in vitro ischemia model was also used for bEND3 cells, SH-SY5Y cells, and astrocytes. For bEND3 cells anaerobic incubation was extended to 2-3 hours and upon removal from the anaerobic incubator, 60 μl of DMEM/2% FCS was added to wells. […]
Twenty-four hours after insult, neuronal cultures were examined by light microscopy for qualitative assessment of neuronal cell viability. Neuronal viability was quantitatively measured by 3-(4,5,dimethyliazol-2-yl)-5-(3-carboxymethoxy-phenyl)-2-(4-sulfophenyl)-2H-tetrazolium salt (MTS) assay (Promega, Australia). The MTS assay measures the cellular conversion of the tetrazolium salt to a water-soluble brown formazan salt, which is detected spectrophotometrically at 490 nm. MTS absorbance data were converted to reflect proportional cell viability relative to both the untreated and treated controls, with the untreated control taken as 100% viability, and presented as mean±SEM. […]

As for `N=C(N)NCCC[C@H](NC(=O)[C@H](CCCNC(=N)N)NC(=O)[C@H](CCCNC(=N)N)NC(=O)[C@H](CCCNC(=N)N)NC(=O)[C@H](CCCNC(=N)N)NC(=O)[C@H](CCCNC(=N)N)NC(=O)[C@H](CCCNC(=N)N)NC(=O)[C@H](CCCNC(=N)N)NC(=O)[C@@H](N)CCCNC(=N)N)C(=O)O` [Peptide R9], the “neuroprotection when added 15 minutes post-insult” value in experiment [1] (15 min post-glutamic acid (FIG. 1d)) is given as “mildly effective”. In addition, in experiment [1], the “neuroprotection, peptide present during the 5 minute glutamic acid insult only” value is “effective” and the “neuroprotection, 10 minute pre-exposure removed immediately prior to insult” value is given as “effective”. Besides, in experiment [1] (glutamic acid model), the “fold more potent than TAT-D, based on IC50 values” is on record as 17 fold. In experiment [1] (normal neurons and following injury), the “MTS absorbance levels relative to baseline” value is recorded as “increase MTS absorbance levels above baseline levels”. Besides, the IC50 in experiment [1] (read-out: IC50: Glutamic acid model, Table 3, from dose response graph FIG. 1a, peptide 15 min prior to and during 100 μM glutamic acid (5 min), viability 24 h, MTS) was found to be 780 nM. Also, in experiment [1] (read-out: IC50: Glutamic acid model, Table 4, polyarginine peptides, from dose response graph FIG. 1e), the IC50 was found to be 830 nM. Also, in experiment [2], the “neuroprotection when added for 15 minutes after OGD” value is on record as “not” and the “neuroprotection when added post-in vitro ischemia/OGD” value was “displayed neuroprotective effects; also recorded: effective”. Moreover, the IC50 in experiment [2] (Table 3, from FIG. 3a, peptide during ischemia and at 50% dose after, viability 24 h, MTS, read-out: IC50: In vitro ischemia model) worked out at 6000 nM. In experiment [3], the “protection of SH-SY5Y cells (cell death after in vitro ischemia)” value was “reduced; also recorded: able to protect”.

Turning to H-RRRRRRRRRRRRRRRRRR-OH [Peptide R18], in experiment [1], the midpoint of inhibition, the IC50, lay at 240 nM; the “neuroprotection, peptide present during the 5 minute glutamic acid insult only” value is recorded as “effective”; the “neuroprotection, 10 minute pre-exposure removed immediately prior to insult” value is “effective”. For the same compound, the “neuroprotective efficacy at the higher concentration” value in experiment [1] (5 μM, dose response study) is “reduced”. Besides, the “neuroprotection (neuronal viability)” value in experiment [1] (peptide 15 min prior to and during glutamic acid exposure, viability 24 h, MTS) is recorded as “showed significant neuroprotection”. Further, the “efficacy at higher concentrations, added post-in vitro ischemia” value in experiment [2] (FIG. 3b) is recorded as “reduced efficacy”. Moreover, the “neuroprotection, peptide for 10 minutes, 1 to 3 hours prior to OGD” value in experiment [2] (FIG. 32) is on record as “effective”. In experiment [2], the “neuroprotection when added for 15 minutes after OGD” value is given as “Neuroprotection is displayed” and the “neuroprotection when added post-in vitro ischemia/OGD” value is recorded as “displayed neuroprotective effects; also recorded: effective”.

What is called IC50 is the concentration that gives 50% inhibition.
